Results taken from BindingDB's records for doi:10.1021/jm0496077 (University of Southern California, 2005).

Molecular target: Integrase (Human immunodeficiency virus 1)
Test: Concentration required to inhibit catalytic activity of human immuno deficiency virus type 1 integrase

O=C(/C=C(\O)c1ccc(Cc2ccc(F)cc2)o1)c1cc[nH]c1
IC50: < 1 µM
